The values that follow come from ChEMBL document CHEMBL5233248, “Resveratrol - A comprehensive review of recent advances in anticancer drug design and development” (Eur J Med Chem, 2020).

For one series, the system named is A-431. Description: Anticancer activity against human A-431 cells assessed as reduction of cell viability incubated for 48 hrs by MTT assay. As to conditions: A-431, 48 h. The series is classed as functional, cell-based.
Series [1] relates to MCF7. The experiment in a line: Anticancer activity against human MCF7 cells assessed as reduction of cell viability incubated for 48 hrs by MTT assay. The series is classed as functional, cell-based. The settings on record: MCF7, 48 h. A general note: Formazan colour is commonly taken as a measure of viable cells.
In another series the test system is MCF-12A. The experiment in a line: Anticancer activity against human MCF-12A cells assessed as reduction of cell viability incubated for 48 hrs by MTT assay. The series is classed as functional, cell-based.
In a further series the test system is HaCaT. Description: Anticancer activity against human HaCaT cells assessed as reduction of cell viability incubated for 48 hrs by MTT assay. The series is classed as functional, cell-based.
Series [2] deals with SK-OV-3. The experiment in a line: Anticancer activity against human SK-OV-3 assessed as cell growth inhibition incubated for 72 hrs by MTT assay. The series is classed as functional, cell-based. The settings on record: SK-OV-3, 72 h.
For series [3], the system named is PANC-1. Description: Anticancer activity against human PANC-1 cells assessed as cell growth inhibition incubated for 48 hrs by SRB assay. The series is classed as functional.
Series [4] concerns MDA-MB-231. Description: Anticancer activity against human MDA-MB-231 cells assessed as cell growth inhibition incubated for 48 hrs by SRB assay. The settings on record: MDA-MB-231, 48 h. The series is classed as functional, cell-based.
The next series deals with HCT-116. Description: Anticancer activity against human HCT-116 cells assessed as cell growth inhibition incubated for 4 days. The series is classed as functional, cell-based. As to conditions: HCT-116, 96 h.
The test system of a further series is SF-539. The experiment in a line: Anticancer activity against human SF-539 cells assessed as cell growth inhibition. The series is classed as functional.
In another series the test system is SK-MEL-5. The experiment in a line: Anticancer activity against human SK-MEL-5 cells assessed as cell growth inhibition. The series is classed as functional.
A further series concerns MV4-11. The experiment in a line: Anticancer activity against human MV4-11 cells assessed as cell growth inhibition. The settings on record: read-out: LD50 (the source's name). The series is classed as functional.
In the next series the test system is MDA-MB-435. The experiment in a line: Anticancer activity against human MDA-MB-435 cells assessed as cell growth inhibition. The series is classed as functional.
Another series concerns COLO 205. Description: Anticancer activity against human COLO 205 cells assessed as cell growth inhibition. The series is classed as functional.
Series [5] concerns A2780. The experiment in a line: Anticancer activity against human A2780 cells assessed as cell growth inhibition incubated for 24 hrs […] by MTT assay. The series is classed as functional, cell-based. As to conditions: A2780, 24 h.
Series [6] has as its system SK-OV-3. Description: Anticancer activity against human SK-OV-3 cells assessed as cell growth inhibition by LDH release assay. The series is classed as functional, cell-based. (Release of lactate dehydrogenase indicates damage to the cell membrane.)
The nature of series [7]: Anticancer activity against human HOSE cells assessed as cell growth inhibition incubated for 24 hrs […] by MTT assay. The series is classed as functional, cell-based.
A short description of series [8]: Anticancer activity against human Peritoneal mesothelial cells assessed as cell growth inhibition incubated for 24 hrs […] by MTT assay. The series is classed as functional, cell-based.
A short description of series [9]: Anticancer activity against human Peritoneal mesothelial cells assessed as cell growth inhibition by LDH release assay. The series is classed as functional, cell-based.
In series [10] the test system is OVCAR-3. The experiment in a line: Anticancer activity against human OVCAR-3 cells assessed as cell growth inhibition incubated for 24 hrs […] by MTT assay. As to conditions: OVCAR-3, 24 h. The series is classed as functional, cell-based.
Series [11] relates to OVCAR-3. The experiment in a line: Anticancer activity against human OVCAR-3 cells assessed as cell growth inhibition by LDH release assay. The series is classed as functional, cell-based.
A short description of series [12]: Anticancer activity against human HOSE cells assessed as cell growth inhibition by LDH release assay. The series is classed as functional, cell-based.
The test system of series [13] is A2780. The experiment in a line: Anticancer activity against human A2780 cells assessed as cell growth inhibition by LDH release assay. The series is classed as functional, cell-based.
Series [14] relates to SK-OV-3. The experiment in a line: Anticancer activity against human SK-OV-3 cells assessed as cell growth inhibition incubated for 24 hrs […] by MTT assay. The series is classed as functional, cell-based. As to conditions: SK-OV-3, 24 h.
A short description of series [15]: Anticancer activity against human MuM-2B cells assessed as cell growth inhibition incubated for 72 hrs by CCK-8 assay. The series is classed as functional, cell-based.
The test system of series [16] is MCF7. Description: Anticancer activity against human MCF7 cells assessed as cell viability at 10 uM measured after 7 days relative to control. The series is classed as functional. The settings on record: MCF7, 168 h, time 7 day, read-out: Activity.
In series [17] the test system is MDA-MB-231. The experiment in a line: Anticancer activity against human MDA-MB-231 cells assessed as cell viability at 10 uM measured after 7 days relative to control. The series is classed as functional. As to conditions: MDA-MB-231, 168 h, time 7 day, read-out: Activity.
Series [18] relates to B16-F10. Description: Anti cancer activity against mouse B16-F10 cells assessed as cell growth inhibition incubated for 40 hrs by Almar Blue stained fluorescence-based assay. The series is classed as functional. The settings on record: B16-F10, 40 h.
For the next series, the system named is HepG2. The experiment in a line: cells. The settings on record: Homo sapiens, HepG2, 48 h.
For a further series, the system named is Caco-2. Description: cells. As to conditions: Homo sapiens, Caco-2, 48 h.
The subject of another series is BT-549. The experiment in a line: Anticancer activity against human BT-549 cells assessed as cell viability at 10 uM measured after 7 days relative to control. The series is classed as functional. The settings on record: BT-549, 168 h, time 7 day, read-out: Activity.
Series [19] concerns B16-F10. Description: Anti cancer activity against mouse B16-F10 cells assessed as cell growth inhibition incubated for 40 hrs by Almar Blue stained fluorescence-based assay relative to control. The series is classed as functional.
In the next series the test system is HT-29. The experiment in a line: cells. The settings on record: Homo sapiens, HT-29, 48 h.
The subject of the next series is ZR-75-1. The experiment in a line: Anticancer activity against human ZR-75-1 cells assessed as cell viability at 10 uM measured after 7 days relative to control. The series is classed as functional. The settings on record: ZR-75-1, 168 h, time 7 day, read-out: Activity.
The test system of a further series is MDA-MB-157. Description: Anticancer activity against human MDA-MB-157 cells assessed as cell viability at 10 uM measured after 7 days relative to control. The series is classed as functional. As to conditions: MDA-MB-157, 168 h, time 7 day, read-out: Activity.
A short description of series [20]: Cytotoxicity against mouse NIH3T3 cells assessed as cell growth inhibition by CyQuant assay. The series is classed as toxicity, cell-based.
Series [21] deals with PANC-1. The experiment in a line: Anticancer activity against human PANC-1 cells assessed as cell growth inhibition by CyQuant assay. The series is classed as functional, cell-based.
Series [22] relates to MDA-MB-231. The experiment in a line: Anticancer activity against human MDA-MB-231 cells assessed as cell growth inhibition by CyQuant assay. The series is classed as functional, cell-based.
The test system of the next series is U-251. Description: Anticancer activity against human U-251MG cells assessed as cell growth inhibition by CyQuant assay. The series is classed as functional, cell-based.
Series [23] has as its system MCF7. Description: Anticancer activity against human MCF7 cells assessed as cell growth inhibition by CyQuant assay. The series is classed as functional, cell-based.

Description for Caco-2: Anti cancer activity against human Caco-2 cell assessed as cell growth inhibition incubated for 48 hrs by Brdu assay
Description for HT-29: Anti cancer activity against human HT-29 cell assessed as cell growth inhibition incubated for 48 hrs by Brdu assay
Description for HepG2: Anti cancer activity against human HepG2 cell assessed as cell growth inhibition incubated for 48 hrs by Brdu assay

In the case of `COc1cc(/C=C/c2ccc(SC)cc2)cc(OC)c1OC`, the IC50 (usually the concentration at which inhibition is half-maximal) was determined as 19.3 µM in the series on A-431, 2100 nM with MCF7 [1], 25.7 µM with MCF-12A and 10 µM with HaCaT.

On to `COc1cc(OC)cc(-n2cnc(-c3ccc(O)cc3)c2)c1`, for which the IC50 in the series on SK-OV-3 [2] worked out at 18.2 µM.

As for `COc1cc(/C=C/c2ccc(OC(=O)CSc3nnc(-c4cccc(C(F)(F)F)c4)o3)cc2)cc(OC)c1`, the GI50 (commonly the concentration that inhibits growth by half) in the series on PANC-1 [3] (48 h) was 94 nM; with PANC-1 [3] (Homo sapiens, PANC-1, 48 h) it was 64 nM. Besides, the IC50 with MDA-MB-231 [4] is 72 nM.

`CC1c2cc(O)c(O)cc2Oc2cc(/C=C/c3ccc(O)cc3)cc(O)c21` (stereo not given): the IC50 in the series with HCT-116 was 9.52 µM.

As for `COc1cc(/C(C#N)=C/c2ccc3ccccc3c2)cc(OC)c1OC`, the GI50 with SF-539, in the series with SK-MEL-5, in the series with MDA-MB-435 and with COLO 205 was at most 25 nM in each case. In the series on MV4-11, the CC50 was 200 nM.

Turning to `Oc1ccc(/C=C/c2ccc(O)c(O)c2)cc1O`, the IC50 with A2780 [5] turned out to be 4 µM; in the series on SK-OV-3 [6], 10 µM; in [7], 502 µM; in series [8] it was 496 µM; in [9], 498 µM; in the series on OVCAR-3 [10], 50 µM. Further, the IC50 in the series on OVCAR-3 [11] amounted to 85 µM; in series [12] it was 532 µM; in the series on A2780 [13], 6 µM; in the series on SK-OV-3 [14], 8 µM.

Turning to `COc1cc(/C=C/c2ccc(OCC(=O)O[C@H]3c4cc5c(cc4[C@@H](c4cc(OC)c(OC)c(OC)c4)[C@H]4C(=O)OC[C@@H]43)OCO5)cc2)cc(OC)c1`, in [15], the IC50 worked out at 81 nM.

Regarding `COc1ccc(/C=C\c2cc(OC)cc(OC)c2)cc1` [8Z-3,4',5-TRIMETHOXYSTILBENE], the viability at 10 µM in the series with MCF7 [16] was 50%; with MDA-MB-231 [17] it was 10%; with BT-549, 70%; with ZR-75-1 it was below 50%; with MDA-MB-157 it was 25%. For the same molecule, the IC50 was 1000 nM in the series on B16-F10 [18], 473 nM in the series with HepG2, 145 nM in the series with Caco-2 and 115 nM with HT-29. Moreover, the “inhibition (INH)” value in the series with B16-F10 [19] came to 75%.

For `COc1cc(/C=C/c2ccc(OC(C)=O)cc2)cc(OC)c1`, the IC50 was above 20 µM in [20]; 18.1 µM in the series on PANC-1 [21]; 18.5 µM with MDA-MB-231 [22]; 6.7 µM in the series with U-251; 10.8 µM in the series with MCF7 [23].
